Experimental data from patent US11913075B2, “Methods and compositions for detecting and modulating an immunotherapy resistance gene signature in cancer” (The Broad Institute, Inc., priority 2017, dated 2024).

Key:
[1] = tested on: IGR37 melanoma cell line (RB-sufficient); experiment: scRNA-seq of IGR37 melanoma cell line before and after abemaciclib for 1 week; type: cell-based; conditions: IGR37, post-treatment with abemaciclib; 10% before treatment
Procedure: (§1) Applicants performed scRNA-seq on these cell lines before and after treatment with abemaciclib for 1 week (FIG. 41).
(§2) To test this hypothesis, Applicants studied the effect of abemaciclib on the immune resistance program in melanoma cell lines. […] Applicants profiled each cell line with scRNA-seq before and after treatment with abemaciclib for 1 week (FIGS. 49D-E), analyzing over 23,000 cells in these and follow-up conditions (below).
(§3) For droplet-based scRNA-seq, experiments were performed on the 10× Genomics Chromium platform, with the Chromium Single Cell 3′ Library & Gel Bead Kit v2 and Chromium Single Cell 3′ Chip kit v2 according to the manufacturer's instructions in the Chromium Single Cell 3′ Reagents Kits V2 User Guide. Briefly, 6,000 cells were re suspended in PBS supplemented with 0.04% BSA and loaded to each channel. The cells were then partitioned into Gel Beads in Emulsion in the GemCode instrument, where cell lysis and barcoded reverse transcription of RNA occurred, followed by amplification, shearing and 5′ adaptor and sample index attachment.

[2] = tested on: UACC257 melanoma cell line (RB-sufficient); experiment: scRNA-seq of UACC257 melanoma cell line before and after abemaciclib for 1 week; type: cell-based; conditions: UACC257, post treatment with abemaciclib; 10% prior to treatment
Procedure: as §1, §2, §3

## CCN1CCN(Cc2ccc(Nc3ncc(F)c(-c4cc(F)c5nc(C)n(C(C)C)c5c4)n3)nc2)CC1 [abemaciclib]
[1]
  cells with exceptionally strong expression of the uICR signature / immune resistance program ("immune resistant" cells): 2%
[2]
  cells with exceptionally strong expression of the immune resistance program ("immune resistant" cells): 1%
